Publication PMC6325233, “A Novel Actin Binding Drug with In Vivo Efficacy” (Antimicrobial Agents and Chemotherapy, 2018)
Entries after “also recorded” stand apart in the source; their conditions may differ. Like-named read-outs stand apart in the source and are kept apart here.

Key:
[1] = tested on: rabbit skeletal muscle filamentous actin; test: In vitro actin filament microscopy; format: biochemical; settings: 24 μg actin with 4 or 8 μg native occidiofungin (8 μg alkyne-OF), 15 min
Protocol: Purified rabbit skeletal muscle filamentous actin (catalog number AKF99) and G-actin (catalog number AKL95) were purchased from Cytoskeleton, Inc. Actin was reconstituted in Milli-Q water to achieve a stock concentration of 0.4 mg/ml in a buffer that consisted of 5 mM Tris-HCl (pH 8.0), 0.2 mM CaCl2, 0.2 mM ATP, 2 mM MgCl2, and 5% (wt/vol) sucrose as directed by the supplier. This solution was stored at −80°C in 50-μl aliquots until use. Immediately before use, each aliquot was thawed by placing it in a 37°C water bath for 5 min and then at room temperature. For all studies, 24 μg of F- or G-actin was used with 8 μg alkyne-OF. F-actin filaments were reacted with native occidiofungin for 15 min at room temperature at molar ratios of 1:10 (24 μg actin to 8 μg native occidiofungin) and 1:5 (24 μg actin to 4 μg native occidiofungin). As per the manufacturer’s instructions, Acti-stain 670 phalloidin (Cytoskeleton, Inc.) was used as a control in an in vitro actin filament binding study. Actin filaments treated with DMSO (solvent blank negative control) were stained and observed for comparison. The actin filaments were visualized on an Olympus FV1000 confocal microscope. Pulldown assays were performed using alkyne-OF with azide-biotin (Click-iT protein reaction buffer kit; Thermo Fisher Scientific), according to the manufacturer’s instructions. […]

[2] = tested on: Schizosaccharomyces pombe; test: Intracellular localization and competition, fluorescence microscopy; format: cell-based; settings: pretreatment with 1× MIC native occidiofungin
Protocol: (§1) S. pombe and S. cerevisiae cells (OD600 of 0.6 to 0.8) were incubated with 1× MIC of alkyne-OF at 30°C, with samples removed at 10, 30, and 60 min postincubation. The cells were washed in PBS and fixed with 3.7% formaldehyde. The cells were permeabilized by adding 0.5% Triton X-100. The cells were washed with PBS before the Click reaction with azide-derivatized Alexa Fluor 488 (Click-iT EdU imaging kit; Thermo Fisher Scientific). The cells were visualized with an Olympus FV1000 confocal microscope. A competition assay was carried out by pretreating cells with 1× MIC of the native occidiofungin followed by treatment with alkyne-OF. […] A 6.6 µM concentration of tetramethyl rhodamine isothiocyanate (TRITC)-tagged phalloidin was added to formaldehyde-fixed cells (permeabilized with 0.2% Triton X-100) for 30 min at room temperature. The cells were washed in PBS, added to a concanavalin A-treated glass slides, and overlaid with Vectashield plus DAPI. Images were viewed using a Nikon 50i fluorescence microscope with a 100× oil immersion objective and Texas Red and DAPI filter sets. Random images were captured using a Retiga EXi black and white charge-coupled-device (CCD) camera and Image Q software. All images were captured using the same exposure settings, with the image contrast altered postcapture using CorelDraw.

[3] = tested on: Saccharomyces cerevisiae BY4741; test: MIC susceptibility testing; format: cell-based
Protocol: Occidiofungin was purified from a liquid culture of Burkholderia contaminans MS14 as previously described ([21]). MIC susceptibility testing was performed according to the CLSI M27-A3 and M38-A2 standards for the susceptibility testing of yeasts and filamentous fungi, respectively. S. cerevisiae deletion mutants were obtained from the commercially available BY4741 deletion library (Thermo Scientific).
The addition of an alkyne reactive group to the primary amine on occidiofungin was performed initially at the Texas A&M Natural Products LINCHPIN Laboratory at Texas A&M University and subsequently at the CPRIT Synthesis and Drug-Lead Discovery Laboratory at Baylor University (see Fig. S1 in the supplemental material). A solution of triethylamine and acetonitrile was prepared by dissolving 10 µl of triethylamine in 11.7 ml of acetonitrile. A stock solution of acetonitrile and the reagents was prepared by adding 2,5-dioxopyrrolidin-1-yl hex-5-ynoate (1.40 mg, 6.69 µmole, 8.2 equivalent) to 1.08 ml of the triethylamine and acetonitrile solution prepared above. Occidiofungin (1 mg, 0.82 µmole, 1 equiv.) was added to the stock solution of acetonitrile and reagents (400 µl) containing triethylamine (0.34 µl, 2.46 µmole, 3 equiv.) and 2,5-dioxopyrrolidin-1-yl hex-5-ynoate ([…], 2.46 µmole, 3 eq). […]

[4] = tested on: S. cerevisiae (diploid, BY4743) actin cables; test: Actin cable visualization, TRITC-labeled phalloidin; format: cell-based; settings: for Cells without actin cables, Avg / Cells with actin cables, Avg: average of two replicates; for Cells without actin cables, Avg: untreated 25.87; for Cells with actin cables, Avg: untreated 74.13
Protocol: as §1

[5] = tested on: yeast; settings: cited from earlier work
From the text: Occidiofungin is a nonribosomally synthesized glycolipopeptide produced by the soil bacterium Burkholderia contaminans MS14 ([21]). It is a cyclic peptide with a base mass of 1,200 Da (Fig. 1) ([21]). Occidiofungin has a wide spectrum of activities against filamentous and nonfilamentous fungi and minimal toxicity in an animal system ([21], [22]).

## occidiofungin
[1]
  effect on F-actin morphology: the morphology of F-actin changed in the presence of occidiofungin in a dose-dependent manner
[1]; listed as native occidiofungin
  effect on F-actin morphology: a high degree of aggregation of the filaments
[2]
  competition with alkyne-OF localization: the observed cellular localization patterns disappeared; also recorded: does not bind
[3]; CLSI M27-A3, alkyne-OF vs native comparison (S2 Table)
  MIC: 0.125 µg/mL
[3]; parent strain of deletion mutants (S4 Table)
  MIC: 0.25 µg/mL
[4]
  Cells with actin cables, %: 1.32%
[4]; 0.5X MIC, 30 min, SD 1.45
  Cells without actin cables, Avg: 97.66%
  Cells with actin cables, Avg: 2.34%
[4]; 0.5X MIC, 30 min, replicate 1
  Cells without actin cables, %: 98.68%
[4]; 0.5X MIC, 30 min, replicate 2
  Cells with actin cables, %: 3.36%
  Cells without actin cables, %: 96.64%
[4]; 0.5X MIC, 60 min, SD 0.25
  Cells without actin cables, Avg: 99.82%
  Cells with actin cables, Avg: 0.18%
[4]; 0.5X MIC, 60 min, replicate 1
  Cells with actin cables, %: 0%
  Cells without actin cables, %: 100%
[4]; 0.5X MIC, 60 min, replicate 2
  Cells with actin cables, %: 0.36%
  Cells without actin cables, %: 99.64%
[4]; 0.5× MIC, 30 min
  effect on actin organization: an accumulation of actin patches and/or aggregates of F-actin were observed throughout the treated cells with a concomitant loss of actin cables; also recorded: a loss of actin cables and the accumulation of actin aggregates
[5]; subinhibitory concentrations
  impact on growth rate of yeast: little to no impact on the growth rate of yeast
[5]; yeast cells at the MIC
  induction of apoptosis: rapidly induces apoptosis in yeast cells
